Measurements taken from PMC4444023 (PLoS ONE, 2015).
≈ marks a conversion by molar mass, not a printed value. Where “and” joins values, the source holds several entries; their conditions need not be identical. Equal values may be shown once. Entries after “also recorded” stand apart in the source; their conditions may differ. Read-outs that look alike come from different tables or passages of the source. Values belong to the molecule of their own block, whether it stands above or below them.

Tests used:
nSMase [1] = target: nSMase; design: method as in PMID 21615386, PMID 17049336; settings: Enzyme source: Mouse brain; cited from earlier work
human nSMase2 [2] = target: T1, human nSMase2 (Homo sapiens, UniProt Q9NY59); experiment: Fluorescence (Amplex red coupled) nSMase2 activity assay; format: biochemical; design: Full length human nSMase2 cDNA with a C-terminal Flag tag; crude cell lysate used as enzyme; settings: for block of human nSMase2 activity: even at 100 μM; for inhibition of human nSMase2 activity: 150 μM GW4869, 100 μM manumycin A, altenusin, zoledronic acid
T1 sequence (Q9NY59 1-655): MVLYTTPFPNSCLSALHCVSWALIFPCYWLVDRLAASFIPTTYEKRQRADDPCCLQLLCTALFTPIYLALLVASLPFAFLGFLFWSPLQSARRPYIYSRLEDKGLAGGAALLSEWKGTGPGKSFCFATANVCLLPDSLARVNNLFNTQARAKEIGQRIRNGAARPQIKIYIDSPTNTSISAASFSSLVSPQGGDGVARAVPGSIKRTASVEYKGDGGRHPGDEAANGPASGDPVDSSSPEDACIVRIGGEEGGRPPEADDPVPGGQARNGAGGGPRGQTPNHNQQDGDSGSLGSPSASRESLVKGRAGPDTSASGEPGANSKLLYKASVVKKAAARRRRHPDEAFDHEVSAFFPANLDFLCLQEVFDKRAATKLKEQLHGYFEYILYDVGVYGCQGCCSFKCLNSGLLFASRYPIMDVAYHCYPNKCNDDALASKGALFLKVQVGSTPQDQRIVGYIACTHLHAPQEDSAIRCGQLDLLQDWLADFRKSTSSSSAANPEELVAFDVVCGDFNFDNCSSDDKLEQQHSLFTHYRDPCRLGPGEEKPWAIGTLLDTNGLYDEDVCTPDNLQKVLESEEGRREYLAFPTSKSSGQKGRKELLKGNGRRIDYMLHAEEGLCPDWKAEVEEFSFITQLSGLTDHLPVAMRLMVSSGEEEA
Description: The production of the latter was coupled to a dephosphorylation reaction catalyzed by alkaline phosphatase (4 U/ml) to produce choline, followed by oxidation of choline by choline oxidase (0.1 U/ml) to produce betaine and H2O2, which in the presence of horseradish peroxidase (HRP, 1U/ml) and 50 μM Amplex red, generates the fluorescent molecule resorufin (Life Technologies). Substrate stock solution was prepared in 2% Triton X-100, vortexed and sonicated for 30 min. Reactions were carried out for 1 h at 37°C in 100 mM Tris-HCl pH 7.4, 10 mM MgCl2, 0.2% Triton X-100 and the generation of the fluorescent product was monitored by measuring relative florescence units (RFU) with excitation at 530 nm and emission at 590 nm (Fig 1). This assay was optimized for 384-well format (50 μl total volume per well) based on linearity of the enzymatic activity with respect to time, as well as substrate and enzyme concentrations. […] This fluorescence assay was used for compound screening and IC50 value determinations, based on duplicate eight-point dose response curves.

[3] = test system: rat primary hippocampal neurons; experiment: Hippocampal neuronal survival (Hoechst 33342); format: cell-based
Description: All animal procedures were approved by the Johns Hopkins University Animal Care and Use Committee. Primary hippocampal neurons were prepared from day 18 decapitated embryos of Sprague-Dawley rats following previously described methods. Cells were seeded on polyethyleneimine (PEI)-coated slides in 12-well plates and cultured between 14–21 days. […] After 18 h, cells were stained with 50 μg/ml Hoeschst 33342 for 20 min and then fixed with 4% paraformaldehyde for 30 min. The number of living and apoptotic cells was determined by fluorescence microscopy. A minimum of 500 cells were counted per treatment condition. Results were normalized to control untreated cells and were representative of at least two independent experiments conducted in triplicate. Statistical evaluation of the data was done by Student’s t-test.

SIRT1 = settings: cited from earlier work
SIRT2 = settings: cited from earlier work
nSMase [4] = target: nSMase; design: method as in PMID 21615386, PMID 17049336; settings: cited from earlier work
Solubility = format: physicochemical; settings: cambinol compared to GW4869
[5] = in DMSO; cited from earlier work
nSMase [6] = test system: nSMase; design: method as in PMID 21615386, PMID 17049336; settings: cited from earlier work; remark: listed apart in the source
human nSMase2 [7] = target: T1, human nSMase2; experiment: 14C-SM confirmatory direct activity assay; format: biochemical; design: Full length human nSMase2 cDNA with a C-terminal Flag tag; host or cells: HEK293, stably transfected; crude cell lysate used as enzyme
Description: This assay was dependent on the direct hydrolysis of ^14C-labeled SM (^14C N-methyl groups in the phosphorylcholine) by human nSMase2. Optimization of assay conditions was accomplished according to the methods of Barbone et al.. Briefly, bovine [N-methyl-^14C]-sphingomyelin (specific activity […], Perkin Elmer) and phosphatidylinositol (Avanti Polar Lipids) were evaporated to dryness under a stream of nitrogen and resuspended at an equimolar concentration of 0.1 mM in water with 0.5% Triton X-100 (Sigma). The solution was vortexed for 30 min and then sonicated for 30 min. Assay conditions were as follows: 50 μl total volume per reaction, consisting of 20 μM SM, reaction buffer (100 mM Tris-HCl pH 7.5, 80 mM MgCl2, 0.1% Triton X-100); 10 μl cell lysate containing recombinant human nSMase2 (0.5–1 μg protein/assay) and 5 μl of compound in reaction buffer containing 10% DMSO. After 1 h incubation at 37°C the reaction was terminated by the addition of 30 μl of water and 175 μl of chloroform/methanol (2:1, v:v), followed by vigorous vortexing. Tubes were centrifuged for 5 min at 10,000 xg at room temperature to separate the organic bottom phase containing labeled SM and the aqueous upper phase containing ^14C-labeled-phosphorylcholine. An aliquot (50 μl) of the upper phase was transferred to a vial with 10 ml of scintillant and counted for 2 min on a Beckman LS-6000IC scintillation counter. Enzyme activity was directly proportional to the disintegrations per min (dpm) resulting from the generation of ^14C-phosphorylcholine.

Compound: CCCCCCCCCCC=NNC(=N)N [C11AG]
- IC50 (nSMase [1]): 8 µM

Compound: NC(=O)[C@H]1CCCCc2c1[nH]c1ccc(Cl)cc21 [CHIC-35, reference compound]
- block of human nSMase2 activity (human nSMase2 [2]): not possible to block
- IC50 (human nSMase2 [2]; fluorescence nSMase2 assay (S2 Fig)): 70 µM
- neuron survival, Mean (normalized to control untreated cells) ([3]; 100 ng/ml TNFα, 200 nM compound): 71.88
- neuron survival, Mean (normalized to control untreated cells) ([3]; No TNFα, 200 nM compound): 62.07
- IC50 (SIRT2): 19.6 µM

Compound: O=C(/C=C\c1ccc(/C=C\C(=O)Nc2ccc(C3=NCCN3)cc2)cc1)Nc1ccc(C2=NCCN2)cc1 [GW4869, reference compound]
- modulation of enzymatic activity (Fig 3C raw data) (human nSMase2 [2]; 150 µM (nominal)): 59.6 RFU and 72.8 RFU and 57.5 RFU and 70.4 RFU
- inhibition of human nSMase2 activity (human nSMase2 [2]): possible to inhibit enzyme activity; also recorded: inhibition
- IC50 (nSMase [4]; Enzyme source: Rat brain): 1 µM
- MOI (nSMase [4]): Non- competitive
- aqueous solubility (Solubility): low
- solubility [5]: 200 µg/mL (≈ 396 µM)

Compound: CCCC[C@@H](C)/C=C(C)/C=C(\C)C(=O)NC1=C[C@@](O)(/C=C/C=C/C=C/C(=O)NC2=C(O)CCC2=O)[C@@H]2O[C@@H]2C1=O [Manumycin A, reference compound]
- inhibition of human nSMase2 activity (human nSMase2 [2]): inhibition
- MOI (nSMase [6]): Irreversible

- IC50 (human nSMase2 [7]; [14C]-SM direct activity assay, human recombinant enzyme): > 100 µM
Compound: CCCCn1c(-c2ccccc2)c(Cc2c(O)ccc3ccccc23)c(=O)[nH]c1=S [compound 4]
- potency and specificity against SIRT 2 vs cambinol (SIRT2): significantly improved
- human nSMase2 inhibitory activity of analog vs cambinol (human nSMase2 [7]; SAR): loss of activity; also recorded: eliminated

- block of human nSMase2 activity (human nSMase2 [2]): not possible to block
Compound: CC(NC(=O)c1ccccc1/N=C/c1c(O)ccc2ccccc12)c1ccccc1 (centres unmarked) [sirtinol, reference compound]
- neuron survival, Mean (normalized to control untreated cells) ([3]; 100 ng/ml TNFα, 40 µM compound): 60.73
- neuron survival, Mean (normalized to control untreated cells) ([3]; No TNFα, 40 µM compound): 53.3
